Assays:
[1] = Solubility in organic solvents at room temperature by direct dissolution method; format: physicochemical; conditions: for Solubility: room temperature; for Solubility in aromatic solvents: toluene and tetralin, by NMR spectroscopy and direct dissolution method
Method: The solubility of N,N′-di-tert-butylacetamidinato-N,N′-di-tert-butylacetamidinatocarbamoyl dicarbonyl Ruthenium(II) (“Ru-Cbm-Invention”, from Example 1) and bis(N,N′-di-tert-butylacetamidinato) dicarbonyl Ruthenium(II) (“Ru-AMD-Comparative”) were determined at room temperature in a variety of solvents by direct dissolution method. The solid Ru-AMD-Comparative compound was prepared by the synthetic route described in R. Gordon et al., The Open Inorganic Chemistry Journal, 2 (2008) 11. Compounds with less than 0.01 wt % dissolved were considered to be sparingly soluble.

[2] = Decomposition temperature by accelerated rate calorimetry (ARC); format: physicochemical; conditions: ARC adiabatic calorimeter, self-heating exceeding 0.02° C./minute
Method: The decomposition temperature of N,N′-di-tert-butylacetamidinato-N,N′-di-tert-butylacetamidinatocarbamoyl dicarbonyl Ruthenium(II) (“Ru(AMD)-Cbm”) was determined using accelerated rate calorimetry (ARC™ adiabatic calorimeter available from Arthur D. Little). A sample of the compound was placed in a spherical bomb that was connected to a sealed pressure measurement system. A thermocouple was attached to the outside of the bomb and the bomb was placed in the center of the calorimeter assembly. The calorimeter assembly has 3 zones, each zone having its own thermocouple and heaters. The ARC™ calorimeter uses a heat-wait-search-exotherm program. The calorimeter and the sample were heated to a start temperature. The sample and calorimeter temperatures equilibrated during the wait portion of the program. Next, the calorimeter monitored the sample for self-heating (exceeding 0.02° C./minute) during the search portion of the program to determine the onset temperature of the exotherm. To be useful in ALD processes, a precursor should not decompose at temperatures at or below 140° C., and preferably not at or below 150° C.

[3] = Mixture of Diphenyl ether and Biphenyl
[4] = Polyethylene glycol dibutyl ether

| Solubility ([1]; Cyclohexylbenzene) | Solubility ([1]; Cyclohexylbenzene:LAB (1:1)) | Solubility ([1]; LAB) | Solubility [1, 3] | Solubility ([1]; Pentamethyldiethylenetriamine) | Solubility [1, 4] | Solubility ([1]; THF) | Solubility ([1]; Tetralin) | Solubility ([1]; Toluene) | Solubility ([1]; n-Octane) | Solubility in aromatic solvents [1] | Temperature up to which the sample was stable (decomposition, onset of exotherm) [2] | Increase of solubility as compared to Ru-AMD ([1]; in tetrahydrofuran) | SMILES |
| --- | --- | --- | --- | --- | --- | --- | --- | --- | --- | --- | --- | --- | --- |
| <0.01 wt % | <0.01 wt % | <0.01 wt % | <0.01 wt % | <0.01 wt % | <0.01 wt % | 0.7 wt % | <0.01 wt % | <0.01 wt % | insoluble | little to no solubility | – | – | CC(=NC(C)(C)C)[N]([Ru][N](C(C)=NC(C)(C)C)C(C)(C)C)C(C)(C)C.[C-]#[O+].[C-]#[O+] [Ru-AMD, bis(N,N′-di-tert-butylacetamidinato) dicarbonyl Ruthenium(II), reference compound] |
| 6.0 wt % | 6.0 wt % | 3.0 wt % | 12.0 wt % | 15.0 wt % | 8.0 wt % | 43.6 wt % | 8.5 wt % | 38.5 wt % | 2.3 wt % | soluble | up to 250 °C | 62 fold | CC1=[N+](C(C)(C)C)[Ru-4]2([C]#[O+])([C]#[O+])([C](=O)N1C(C)(C)C)[N](C(C)(C)C)C(C)=[N+]2C(C)(C)C [Ru-Cbm, N,N′-di-tert-butylacetamidinato-N,N′-di-tert-butylacetamidinatocarbamoyl dicarbonyl Ruthenium(II)] |

— patent US8343580B2, “Organometallic compounds” (Rohm and Haas Electronic Materials LLC, priority 2009, dated 2013)
